According to PubChem BioAssay AID296 (DTP/NCI, 2004):
Several values for one entry are separate records, joined by “and”; a condition that tells them apart may be missing. Equal values may be shown once. Results filed as inconclusive are left out.

System: MX-1 breast xenograft, nude mice, tumor weight T/C
Assay: NCI In Vivo Anticancer Drug Screen. Data for tumor model Human Mammary Carcinoma MX-1 Xenograft (intrarenal inoculation) in NU/NU Swiss (nude) mice
Conditions: endpoint: mean tumor weight change, higher = larger tumour
Description: The antitumor activity of compounds was measured in mice bearing transplantable tumors. Survival or tumor size were measured and the results are expressed as the measurement made in the treated group (T) divided by the measurement made in the vehicle treated control group (C). The tumor model used in this assay is Human Mammary Carcinoma MX-1 Xenograft (intrarenal inoculation) in NU/NU Swiss (nude) mice

[1] = dose: 25.0 mg/kg/injection, schedule: Q01DX010 (sc), vehicle: saline
[2] = dose: 100.0 mg/kg/injection, schedule: Q01DX010 (sc), vehicle: saline
[3] = dose: 200.0 mg/kg/injection, schedule: Q01DX010 (sc), vehicle: saline
[4] = dose: 300.0 mg/kg/injection, schedule: Q04DX003 (sc), vehicle: Klucel (hydroxypropylcellulose) (HPC)
[5] = dose: 150.0 mg/kg/injection, schedule: Q04DX003 (sc), vehicle: Klucel (hydroxypropylcellulose) (HPC)
[6] = dose: 1200.0 mg/kg/injection, schedule: Q04DX003 (sc), vehicle: saline with Tween-80
[7] = dose: 300.0 mg/kg/injection, schedule: Q04DX003 (sc), vehicle: saline
[8] = dose: 600.0 mg/kg/injection, schedule: Q04DX003 (sc), vehicle: saline
[9] = dose: 1200.0 mg/kg/injection, schedule: Q04DX003 (sc), vehicle: saline
[10] = dose: 2400.0 mg/kg/injection, schedule: Q04DX003 (sc), vehicle: saline
[11] = dose: 12.5 mg/kg/injection, schedule: Q04DX003 (sc), vehicle: suspension in saline
[12] = dose: 25.0 mg/kg/injection, schedule: Q04DX003 (sc), vehicle: suspension in saline

Q: Which T/C [1] does the source give for `CN1CCN(CCCN2c3ccccc3Sc3ccc(C(F)(F)F)cc32)CC1` here?
A: 107 % of control

Q: And the T/C (dose: 50.0 mg/kg/injection, schedule: Q01DX010 (sc), vehicle: saline)?
A: 61 % of control and 73 % of control

Q: What about the T/C [2] of the same compound?
A: 31 % of control and 52 % of control

Q: What about the T/C [3] of the same compound?
A: 32 % of control

Q: With `OC1CCCC2CCC[N-]C12.OC1CCCC2CCC[N-]C12.[Mn+2]` (stereo not drawn) as the compound, how does the T/C [4] read?
A: 87 % of control

Q: What about the T/C (dose: 600.0 mg/kg/injection, schedule: Q04DX003 (sc), vehicle: Klucel (hydroxypropylcellulose) (HPC)) of the same compound?
A: 108 % of control

Q: And the T/C (dose: 1200.0 mg/kg/injection, schedule: Q04DX003 (sc), vehicle: Klucel (hydroxypropylcellulose) (HPC))?
A: 65 % of control

Q: And the T/C (dose: 2400.0 mg/kg/injection, schedule: Q04DX003 (sc), vehicle: Klucel (hydroxypropylcellulose) (HPC))?
A: 73 % of control

Q: For `CCN(C)N=Nc1ccc(C(N)=O)cc1`, which T/C [5] is on record?
A: 38 % of control

Q: What about the T/C [4] of the same compound?
A: 21 % of control

Q: For `COC1CC2C=C(C)/C=C/C=C/C(=O)NC(c3ccccc3)C/C=C/CCC(O)CC(=O)C2=C1O` (stereo not drawn), which T/C (dose: 75.0 mg/kg/injection, schedule: Q04DX003 (sc), vehicle: Klucel (hydroxypropylcellulose) (HPC)) is on record?
A: 41 % of control

Q: What about the T/C [5] of the same compound?
A: 71 % of control

Q: What about the T/C [4] of the same compound?
A: 50 % of control

Q: `CCCCCCNc1nc(NCCCCCC)c2[nH]c(NCCCCCC)nc2n1` was tested. Which T/C (dose: 300.0 mg/kg/injection, schedule: Q04DX003 (ip), vehicle: saline with Tween-80) did it give?
A: 75 % of control

Q: What does the source list for `c1cc(NC2CCCCC2)ccc1CN1CCOCC1`?
A: T/C (dose: 50.0 mg/kg/injection, schedule: Q01DX010 (sc), vehicle: saline + Tween-80 + alcohol): 66 % of control; T/C (dose: 100.0 mg/kg/injection, schedule: Q01DX010 (sc), vehicle: saline + Tween-80 + alcohol): 38 % of control; T/C (dose: 200.0 mg/kg/injection, schedule: Q01DX010 (sc), vehicle: saline + Tween-80 + alcohol): 81 % of control; T/C (dose: 400.0 mg/kg/injection, schedule: Q01DX010 (sc), vehicle: saline + Tween-80 + alcohol): 61 % of control

Q: `COc1cc2cc3cc4cc(OC)c(OC)cc4c(C)[n+]3cc2cc1OC` (tested in a mixture with another compound) was tested. Which T/C (dose: 1200.0 mg/kg/injection, schedule: Q04DX003 (sc), vehicle: suspension in saline) did it give?
A: 61 % of control

Q: And the T/C (dose: 2400.0 mg/kg/injection, schedule: Q04DX003 (sc), vehicle: suspension in saline)?
A: 84 % of control

Q: Which results are given for `CCCCCCCCCCCCCCCCCC(=O)Nc1ccn(C2OC(CO)C(O)C2O)c(=O)n1` (stereo not drawn)?
A: T/C (dose: 600.0 mg/kg/injection, schedule: Q04DX003 (sc), vehicle: saline with Tween-80): 11 % of control and 15 % of control and 24 % of control; T/C [6]: 3 % of control and 8 % of control

Q: Which T/C [7] does the source give for `CONc1ccn(C2OC(CO)C(O)C2O)c(=O)n1` (stereo not drawn) here?
A: 86 % of control

Q: What about the T/C [8] of the same compound?
A: 74 % of control

Q: What about the T/C [9] of the same compound?
A: 107 % of control

Q: And the T/C [10]?
A: 77 % of control

Q: With `CCOC(=O)CNC(=O)CCCCSc1ncnc2nc[nH]c12` as the compound, how does the T/C [6] read?
A: 109 % of control

Q: And the T/C (dose: 2400.0 mg/kg/injection, schedule: Q04DX003 (sc), vehicle: saline with Tween-80)?
A: 86 % of control

Q: Which T/C (dose: 3.12 mg/kg/injection, schedule: Q04DX003 (sc), vehicle: suspension in saline) does the source give for `[Cl][Pt+2][Cl].[NH-]CC1(C[NH-])CCC1` here?
A: 48 % of control

Q: And the T/C (dose: 6.25 mg/kg/injection, schedule: Q04DX003 (sc), vehicle: saline)?
A: 6 % of control

Q: And the T/C (dose: 6.25 mg/kg/injection, schedule: Q04DX003 (sc), vehicle: suspension in saline)?
A: 19 % of control and 29 % of control

Q: What about the T/C [11] of the same compound?
A: 6 % of control and 16 % of control

Q: And the T/C [12]?
A: -74 % of control and -54 % of control

Q: What does the source list for `CCOC(=O)N(C)N=NC`?
A: T/C (dose: 15.0 mg/kg/injection, schedule: Q04DX003 (ip), vehicle: saline): 97 % of control; T/C (dose: 30.0 mg/kg/injection, schedule: Q04DX003 (ip), vehicle: saline): 95 % of control; T/C (dose: 60.0 mg/kg/injection, schedule: Q04DX003 (ip), vehicle: saline): 71 % of control; T/C (dose: 120.0 mg/kg/injection, schedule: Q04DX003 (ip), vehicle: saline): 52 % of control

Q: For `O=C1c2ccccc2C(=O)c2c(NCCNCCO)ccc(O)c21`, which T/C [12] is on record?
A: 95 % of control

Q: And the T/C (dose: 50.0 mg/kg/injection, schedule: Q04DX003 (sc), vehicle: saline)?
A: 92 % of control

Q: What about the T/C (dose: 100.0 mg/kg/injection, schedule: Q04DX003 (sc), vehicle: saline) of the same compound?
A: 69 % of control

Q: And the T/C (dose: 100.0 mg/kg/injection, schedule: Q04DX003 (sc), vehicle: suspension in saline)?
A: 69 % of control and 78 % of control

Q: And the T/C (dose: 200.0 mg/kg/injection, schedule: Q04DX003 (sc), vehicle: saline)?
A: 63 % of control

Q: And the T/C (dose: 200.0 mg/kg/injection, schedule: Q04DX003 (sc), vehicle: suspension in saline)?
A: 78 % of control

Q: What about the T/C (dose: 400.0 mg/kg/injection, schedule: Q04DX003 (sc), vehicle: saline) of the same compound?
A: 37 % of control

Q: And the T/C (dose: 400.0 mg/kg/injection, schedule: Q04DX003 (sc), vehicle: suspension in saline)?
A: 98 % of control

Q: How did the T/C (dose: 50.0 mg/kg/injection, schedule: Q01DX010 (sc), vehicle: Klucel (hydroxypropylcellulose) (HPC)) turn out when `C[N+](C)(C)c1cc2c(nn1)Nc1ccccc1S2` was run?
A: 74 % of control

Q: And the T/C (dose: 100.0 mg/kg/injection, schedule: Q01DX010 (sc), vehicle: Klucel (hydroxypropylcellulose) (HPC))?
A: 240 % of control and 272 % of control

Q: `Clc1cc(Cl)c(C[N+]23CN4CN(CN(C4)C2)C3)cc1Cl` was tested. Which T/C (dose: 37.5 mg/kg/injection, schedule: Q04DX003 (sc), vehicle: saline with Tween-80) did it give?
A: 106 % of control

Q: What about the T/C (dose: 75.0 mg/kg/injection, schedule: Q04DX003 (sc), vehicle: saline with Tween-80) of the same compound?
A: 120 % of control

Q: What about the T/C (dose: 150.0 mg/kg/injection, schedule: Q04DX003 (sc), vehicle: saline with Tween-80) of the same compound?
A: 110 % of control

Q: What about the T/C (dose: 300.0 mg/kg/injection, schedule: Q04DX003 (sc), vehicle: saline with Tween-80) of the same compound?
A: 169 % of control

Q: `O=C1c2c(O)ccc(O)c2C(=O)c2c(NCCNCCO)ccc(NCCNCCO)c21` was tested. Which T/C (dose: 0.5 mg/kg/injection, schedule: Q01DX010 (sc), vehicle: acid diluted with saline) did it give?
A: 40 % of control

Q: What about the T/C (dose: 2.0 mg/kg/injection, schedule: Q01DX010 (sc), vehicle: acid diluted with saline) of the same compound?
A: 62 % of control

Q: What about the T/C (dose: 2.5 mg/kg/injection, schedule: Q04DX003 (sc), vehicle: other) of the same compound?
A: 59 % of control

Q: And the T/C (dose: 2.5 mg/kg/injection, schedule: Q04DX003 (sc), vehicle: water)?
A: 28 % of control

Q: What about the T/C (dose: 5.0 mg/kg/injection, schedule: Q04DX003 (sc), vehicle: other) of the same compound?
A: 34 % of control

Q: And the T/C (dose: 5.0 mg/kg/injection, schedule: Q04DX003 (sc), vehicle: water)?
A: 9 % of control and 29 % of control

Q: And the T/C (dose: 10.0 mg/kg/injection, schedule: Q04DX003 (sc), vehicle: other)?
A: 8 % of control

Q: And the T/C (dose: 10.0 mg/kg/injection, schedule: Q04DX003 (sc), vehicle: water)?
A: 6 % of control

Q: Which T/C [1] does the source give for `OCC1OC(n2cnc3c(=S)nc[nH]c32)C(O)C1O` (stereo not drawn) here?
A: 38 % of control and 60 % of control

Q: What about the T/C (dose: 50.0 mg/kg/injection, schedule: Q01DX010 (sc), vehicle: suspension in saline) of the same compound?
A: 84 % of control

Q: And the T/C [2]?
A: 12 % of control and 17 % of control

Q: What about the T/C (dose: 100.0 mg/kg/injection, schedule: Q01DX010 (sc), vehicle: suspension in saline) of the same compound?
A: -81 % of control

Q: What about the T/C [3] of the same compound?
A: -22 % of control

Q: And the T/C [7]?
A: 98 % of control

Q: And the T/C [8]?
A: 69 % of control

Q: What about the T/C [9] of the same compound?
A: 39 % of control

Q: What about the T/C [10] of the same compound?
A: 13 % of control

Q: What does the source list for `O=[Te]=O`?
A: T/C [11]: 91 % of control; T/C [12]: 79 % of control; T/C (dose: 50.0 mg/kg/injection, schedule: Q04DX003 (sc), vehicle: suspension in saline): 122 % of control

Q: For `Cc1cc(NCCCCCCNc2cc(C)nc3cc(N(C)C)ccc23)c2ccc(N(C)C)cc2n1`, which T/C (dose: 37.5 mg/kg/injection, schedule: Q04DX003 (sc), vehicle: distilled water + Tween-80 + alcohol) is on record?
A: 34 % of control

Q: What about the T/C (dose: 75.0 mg/kg/injection, schedule: Q04DX003 (sc), vehicle: distilled water + Tween-80 + alcohol) of the same compound?
A: 49 % of control

Q: And the T/C (dose: 150.0 mg/kg/injection, schedule: Q04DX003 (sc), vehicle: distilled water + Tween-80 + alcohol)?
A: 49 % of control

Q: And the T/C (dose: 300.0 mg/kg/injection, schedule: Q04DX003 (sc), vehicle: distilled water + Tween-80 + alcohol)?
A: 30 % of control

Q: For `CCCC(=O)O.CCCC(=O)O.CCCC(=O)O.CCCC(=O)O.[Rh].[Rh]`, which T/C (dose: 2.0 mg/kg/injection, schedule: Q04DX003 (sc), vehicle: suspension in saline) is on record?
A: 99 % of control

Q: And the T/C (dose: 4.0 mg/kg/injection, schedule: Q04DX003 (sc), vehicle: suspension in saline)?
A: 115 % of control

Q: What about the T/C (dose: 8.0 mg/kg/injection, schedule: Q04DX003 (sc), vehicle: suspension in saline) of the same compound?
A: 80 % of control
